For series [1], the system named is LPS-induced TNFα. The experiment in a line: Inhibition of the formation of LPS-induced TNFα in RAW264.7 macrophages. The format is cell-based. The text has this: As for determination of inhibitory activity of Strepsesquitriol on the formation of lipopolysaccharide (LPS)-induced TNFα in RAW264.7 macrophages, please refer to the references (Fan, S. Y.; Zeng, H. W.; Pei, Y. H.; Li. L.; Ye, J.; Pan, Y. X.; Zhang, J. G.; Yuan, X.; Zhang, W. D. The anti-inflammatory activities of an extract and compounds isolated from Platycladus orientalis (Linnaeus) Franco in vitro and ex vivo J Ethnopharmacol 2012, 141, 647-652) ENREF 3.

Series [2] deals with RAW264.7 cells. Kind of series: Cytotoxic activity to RAW264.7 cells. The format is cell-based. As to conditions: concentration 100 μM.

Molecules are shown by their SMILES.

This is an account of results in US9701603B2, “Strepsesquitriol, preparation method thereof, and application thereof” (SOUTH CHINA SEA INSTITUTE OF OCEANOLOGY, CHINESE ACADEMY OF …, priority 2013, dated 2017).

`Cc1ccc(S(=O)(=O)N[C@@H](Cc2ccccc2)C(=O)CCl)cc1` [TPCK, N-p-tosyl-1-phenylalanine chloromethyl ketone, reference compound]: in series [1] (concentration 100 μM), the “Inhibition rate (%)” value came to 60.6%.
As for `C[C@H]1C[C@@H](O)[C@]23C[C@H](CC[C@]12O)C(C)(C)[C@]3(C)O` [Strepsesquitriol A, (1R,2R,4S,5S,8S,10S)-4,9,9,10-tetramethyl-2,5,10-trihydroxyltricyclo[6.2.1.0^1,5]undecane], the inhibition at 3.6 µM in series [1] (Mus musculus, concentration 3.6 μM, read-out: Inhibition rate (%)) worked out at 3.4 ± 2.8%. Besides, the inhibition at 11 µM in series [1] (Mus musculus, concentration 11.0 μM, read-out: Inhibition rate (%)) came to 8 ± 1.6%. Also, the inhibition at 33 µM in series [1] (Mus musculus, concentration 33.0 μM, read-out: Inhibition rate (%)) is 30.6 ± 1.4%. Besides, in series [1] (Mus musculus, concentration 100 μM, read-out: Inhibition rate (%)), the inhibition at 100 µM worked out at 35.4%. For the same molecule, the cytotoxic activity result in series [2] is reported as “no cytotoxic activity”.

A word on the inhibition: it is the relative decrease from the control value, in per cent.
